target: T1, human KSP motor domain (KSP(367H)) (Homo sapiens, UniProt P52732); assay: Kinesin ATPase In Vitro Assay; assay type: biochemical; conditions: kinesin motor domain with microtubules, 1 mM ATP, 23° C.; free phosphate by quinaldine red/ammonium molybdate
T1 construct: were used to amplify the motor domain and the neck linker region; made in house; host or cells: E. coli BL21 (DE3), pRSETa
T1 sequence (P52732 18-359 limits assumed): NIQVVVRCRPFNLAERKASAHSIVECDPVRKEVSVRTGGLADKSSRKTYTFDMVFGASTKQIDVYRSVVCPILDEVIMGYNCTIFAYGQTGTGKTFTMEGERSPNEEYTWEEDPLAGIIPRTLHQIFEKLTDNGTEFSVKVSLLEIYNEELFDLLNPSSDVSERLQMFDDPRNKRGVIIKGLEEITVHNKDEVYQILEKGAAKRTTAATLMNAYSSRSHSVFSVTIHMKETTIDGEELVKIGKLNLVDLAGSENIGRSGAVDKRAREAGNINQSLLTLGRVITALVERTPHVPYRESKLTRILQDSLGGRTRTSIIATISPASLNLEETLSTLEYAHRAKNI
Text: I. Kinesin ATPase In Vitro Assay
Cloning and Expression of Human Poly-histidine Tagged KSP Motor Domain (KSP(367H))
Plasmids for the expression of the human KSP motor domain construct were cloned by PCR using a pBluescript full length human KSP construct (Blangy et al., Cell, vol. 83, pp 1159-1169, 1995) as a template. The N-terminal primer 5′-[…] (SEQ.ID.NO.: 1) and the C-terminal primer 5′-[…] […] (SEQ.ID.NO.: 2) were used to amplify the motor domain and the neck linker region. The PCR products were digested with AseI and XhoI, ligated into the NdeI/XhoI digestion product of pRSETa (Invitrogen) and transformed into E. coli BL21 (DE3).
Cells were grown at 37° C. to an OD600 of 0.5. After cooling the culture to room temperature expression of KSP was induced with 100 μM IPTG and incubation was continued overnight. Cells were pelleted by centrifugation and washed once with ice-cold PBS. Pellets were flash-frozen and stored −80° C.
Cell pellets were thawed on ice and resuspended in lysis buffer (50 mM K-HEPES, pH 8.0, 250 mM KCl, 0.1% Tween, 10 mM imidazole, 0.5 mM Mg-ATP, 1 mM PMSF, 2 mM benzimidine, 1× complete protease inhibitor cocktail (Roche)). Cell suspensions were incubated with 1 mg/ml lysozyme and 5 mM β-mercaptoethanol on ice for 10 minutes, followed by sonication (3×30 sec). All subsequent procedures were performed at 4° C. Lysates were centrifuged at 40,000×g for 40 minutes. Supernatants were diluted and loaded onto an SP Sepharose column (Pharmacia, 5 ml cartridge) in buffer A (50 mM K-HEPES, pH 6.8, 1 mM MgCl2, 1 mM EGTA, 10 μM Mg-ATP, 1 mM DTT) and eluted with a 0 to 750 mM KCl gradient in buffer A. Fractions containing KSP were pooled and incubated with Ni-NTA resin (Qiagen) for one hour. The resin was washed three times with buffer B (Lysis buffer minus PMSP and protease inhibitor cocktail), followed by three 15-minute incubations and washes with buffer B. Finally, the resin was incubated and washed for 15 minutes three times with buffer C (same as buffer B except for pH 6.0) and poured into a column. KSP was eluted with elution buffer (identical to buffer B except for 150 mM KCl and 250 mM imidazole). KSP-containing fractions were pooled, made 10% in sucrose, and stored at −80° C.
Microtubules are prepared from tubulin isolated from bovine brain. Purified tubulin (>97% MAP-free) at 1 mg/ml is polymerized at 37° C. in the presence of 10 μM paclitaxel, 1 mM DTT, 1 mM GTP in BRB80 buffer (80 mM K-PIPES, 1 mM EGTA, 1 mM MgCl2 at pH 6.8). The resulting microtubules are separated from non-polymerized tubulin by ultracentrifugation and removal of the supernatant. The pellet, containing the microtubules, is gently resuspended in 10 μM paclitaxel, 1 mM DTT, 50 μg/ml ampicillin, and 5 μg/ml chloramphenicol in BRB80.
The kinesin motor domain is incubated with microtubules, 1 mM ATP (1:1 MgCl2: Na-ATP), and compound at 23° C. in buffer containing 80 mM K-HEPES (pH 7.0), 1 mM EGTA, 1 mM DTT, 1 mM MgCl2, and 50 mM KCl. The reaction is terminated by a 2-10 fold dilution with a final buffer composition of 80 mM HEPES and 50 mM EDTA. Free phosphate from the ATP hydrolysis reaction is measured via a quinaldine red/ammonium molybdate assay by adding 150 μl of quench C buffer containing a 2:1 ratio of quench A:quench B. Quench A contains 0.1 mg/ml quinaldine red and 0.14% polyvinyl alcohol; quench B contains 12.3 mM ammonium molybdate tetrahydrate in 1.15 M sulfuric acid. The reaction is incubated for 10 minutes at 23° C., and the absorbance of the phospho-molybdate complex is measured at 540 nm.

IC50	SMILES
≤ 50 µM	CN(C)CC(=O)N1CCC(N(C)C(=O)N2CC(c3cc(F)ccc3F)=CC2(CO)c2ccccc2)CC1 (centres unmarked) [Compound 7-3, 4-(2,5-difluorophenyl)-N-[1-(N,N-dimethylglycyl)piperidin-4-yl]-2-(hydroxymethyl)-N-methyl-2-phenyl-2,5-dihydro-1H-pyrrole-1-carboxamide]
≤ 50 µM	CN(C)CCNCC1(c2ccccc2)C=C(c2cc(F)ccc2F)CN1C(=O)N(C)C (centres unmarked) [Compound 3-2, 4-(2,5-Difluorophenyl)-2-({[2-(dimethylamino)ethyl]amino}methyl)-N,N-dimethyl-2-phenyl-2,5-dihydro-1H-pyrrole-1-carboxamide]
≤ 50 µM	CN(C)C(=O)N1CC(c2cc(F)ccc2F)=C[C@@]1(CCC(N)C(F)F)c1ccccc1 (stereo partly drawn) [Compound 31-3, (2S)-2-(3-amino-4,4-difluorobutyl)-4-(2,5-difluorophenyl)-N,N-dimethyl-2-phenyl-2,5-dihydro-1H-pyrrole-1-carboxamide]
≤ 50 µM	CN1CCC(N(C)C(=O)N2CC(c3cc(F)ccc3F)=C[C@@]2(CO)c2ccccc2)CC1 (stereo in doubt) [Compound 1-10, 4-(2,5-Difluorophenyl)-2-(hydroxymethyl)-N-methyl-N-(1-methylpiperidin-4-yl)-2-phenyl-2,5-dihydro-1H-pyrrole-1-carboxamide]
≤ 50 µM	COCC1(c2ccccc2)C=C(c2cc(F)ccc2F)CN1C(=O)N(C)C1CCN(C)CC1 (centres unmarked) [Compound 18-2, 4-(2,5-difluorophenyl)-2-(methoxymethyl)-N-methyl-N-(1-methylpiperidin-4-yl)-2-phenyl-2,5-dihydro-1H-pyrrole-1-carboxamide]
≤ 50 µM	CN(C)C(=O)N1CC(c2cc(F)ccc2F)=CC1(CCC(=O)Nc1ccccc1)c1ccccc1 (centres unmarked) [Compound 24-2, 2-(3-anilino-3-oxopropyl)-4-(2,5-difluorophenyl)-N,N-dimethyl-2-phenyl-2,5-dihydro-1H-pyrrole-1-carboxamide]
≤ 50 µM	CN(C)CCCC1(c2ccccc2)C=C(c2cc(F)ccc2F)CN1C(=O)N(C)C (centres unmarked) [Compound 4-4, 4-(2,5-Difluorophenyl)-2-[3-(dimethylamino)propyl]-N,N-dimethyl-2-phenyl-2,5-dihydro-1H-pyrrole-1-carboxamide]
≤ 50 µM	CN(C)CCCC1(c2ccccc2)C=C(c2cc(F)ccc2F)CN1C(=O)N(C)C1CCOCC1 (centres unmarked) [Compound 28-3, 4-(2,5-difluorophenyl)-2-[3-(dimethylamino)propyl]-N-methyl-2-phenyl-N-tetrahydro-2H-pyran-4-yl-2,5-dihydro-1H-pyrrole-1-carboxamide]
≤ 50 µM	CN(C)CCCC1(c2ccccc2)C=C(c2cc(F)ccc2F)CN1C(=O)C(C)(C)O (centres unmarked) [Compound 29-3, 1-{4-(2,5-difluorophenyl)-2-[3-(dimethylamino)propyl]-2-phenyl-2,5-dihydro-1-pyrrol-1-yl}-2-methyl-1-oxopropan-2-ol]
≤ 50 µM	CN(C)C(=O)N1CC(c2cc(F)ccc2F)=CC1(CCCN)c1ccccc1 (centres unmarked) [Compound 4-3, 2-(3-Aminopropyl)-4-(2,5-difluorophenyl)-N,N-dimethyl-2-phenyl-2,5-dihydro-1H-pyrrole-1-carboxamide]
≤ 50 µM	CN(C(=O)N1CC(c2cc(F)ccc2F)=C[C@@]1(CO)c1ccccc1)C1CCN(C2CC2)CC1 [Compound 15-1, (2S)-N-(1-cyclopropylpiperidin-4-yl)-4-(2,5-difluorophenyl)-2-(hydroxymethyl)-N-methyl-2-phenyl-2,5-dihydro-1H-pyrrole-1-carboxamide]
≤ 50 µM	CN(C)C(=O)N1CC(c2cc(F)ccc2F)=CC1(COCCO)c1ccccc1 (centres unmarked) [Compound 2-2, 4-(2,5-Difluorophenyl)-2-[(2-hydroxyethoxy)methyl]-N,N-dimethyl-2-phenyl-2,5-dihydro-1H-pyrrole-1-carboxamide]
≤ 50 µM	CN(C(=O)N1CC(c2cc(F)ccc2F)=CC1(CO)c1ccccc1)C1CCN(CS(C)(=O)=O)CC1 (centres unmarked) [Compound 13-1, 4-(2,5-difluorophenyl)-2-(hydroxymethyl)-N-methyl-N-{1-[(methylsulfonyl)methyl]piperidin-4-yl}-2-phenyl-2,5-dihydro-1H-pyrrole-1-carboxamide]
≤ 50 µM	CN(C)C(=O)N1CC(c2cc(F)ccc2F)=CC1(CO)c1ccccc1 (centres unmarked) [Compound 1-9, 4-(2,5-Difluorophenyl)-2-(hydroxymethyl)-N,N-dimethyl-2-phenyl-2,5-dihydro-1H-pyrrole-1-carboxamide]
≤ 50 µM	CN(C(=O)N1CC(c2cc(F)ccc2F)=CC1(CO[Si](C)(C)C(C)(C)C)c1ccccc1)C1CCN(CC(=O)OCc2ccccc2)CC1 (centres unmarked) [Compound 16-1]
≤ 50 µM	CN(C(=O)N1CC(c2cc(F)ccc2F)=C[C@@]1(CO)c1ccccc1)C1CCN(CCF)CC1 [Compound 12-1, (2S)-4-(2,5-difluorophenyl)-N-[1-(2-fluoroethyl)piperidin-4-yl]-2-(hydroxymethyl)-N-methyl-2-phenyl-2,5-dihydro-1H-pyrrole-1-carboxamide]
≤ 50 µM	COCC1(c2ccccc2)C=C(c2cc(F)ccc2F)CN1C(=O)N(C)C (centres unmarked) [Compound 2-1, 4-(2,5-Difluorophenyl)-2-(methoxymethyl)-N,N-dimethyl-2-phenyl-2,5-dihydro-1H-pyrrole-1-carboxamide]
≤ 50 µM	CN(C)C(=O)N1CC(c2cc(Cl)ccc2F)=CC1(CCCNC(N)=O)c1ccccc1 (centres unmarked) [Compound 23-1, 2-{3-[(aminocarbonyl)amino]propyl}-4-(5-chloro-2-fluorophenyl)-N,N-dimethyl-2-phenyl-2,5-dihydro-1H-pyrrole-1-carboxamide]
≤ 50 µM	CN(C(=O)N1CC(c2cc(F)ccc2F)=CC1(CO)c1ccccc1)C1CCN(CCO)CC1 (centres unmarked) [Compound 11-1, 4-(2,5-difluorophenyl)-N-[1-(2-hydroxyethyl)piperidin-4-yl]-2-(hydroxymethyl)-N-methyl-2-phenyl-2,5-dihydro-1H-pyrrole-1-carboxamide]
≤ 50 µM	CN(C(=O)N1CC(c2cc(F)ccc2F)=CC1(CO)c1ccccc1)C1CCN(C(CF)CF)CC1 (centres unmarked) [Compound 14-1]
≤ 50 µM	CN(C)C(=O)N1CC(c2cc(Cl)ccc2F)=CC1(CCCNS(C)(=O)=O)c1ccccc1 (centres unmarked) [Compound 21-1, 4-(5-chloro-2-fluorophenyl)-N,N-dimethyl-2-{3-[(methylsulfonyl)amino]propyl}-2-phenyl-2,5-dihydro-1H-pyrrole-1-carboxamide]
≤ 50 µM	CN(C(=O)N1CC(c2cc(F)ccc2F)=CC1(CO)c1ccccc1)C1CCN(CC(F)F)CC1 (centres unmarked) [Compound 10-1, N-[1-(2,2-difluoroethyl)piperidin-4-yl]-4-(2,5-difluorophenyl)-2-(hydroxymethyl)-N-methyl-2-phenyl-2,5-dihydro-1H-pyrrole-1-carboxamide]
≤ 50 µM	CN(C)C(=O)N1CC(c2cc(F)ccc2F)=CC1(CCC(=O)NN)c1ccccc1 (centres unmarked) [Compound 25-1, 4-(2,5-difluorophenyl)-2-(3-hydrazino-3-oxopropyl)-N,N-dimethyl-2-phenyl-2,5-hydro-1H-pyrrole-1-carboxamide]
